US20260072027A1, “Peptides And Method” (Queen Mary University of London, priority 2022, published 2026)
Where no end group is shown, it is not given here.

How the values were obtained:
Type in all cases: cell-based, human
CD4+ T-cells (PBMCs) = test: In vitro peptide stimulation and T-cell proliferation assay, CD4+; settings: for CD4+ mean SI (stimulation index): Study cohort 2
In short: (§1)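 CellTrace Violet-labelled fresh PBMCs from type 1 diabetic and healthy donors cultured 7 days in 5% autologous plasma with or without 20 μg/ml insulin peptides. Proliferation measured by flow cytometry as dye dilution within the CD4+ or CD8+ subset. Stimulation index = % proliferation stimulated/% unstimulated.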

[1] = system: CD4+ and CD8+ T-cells and IgG autoantibodies; test: Overlap of CD4+, CD8+ and IgG antibody responses (Venn analysis); settings: type 1 diabetes; for patients with overlapping (concordant) CD4+ and CD8+ responses to the peptide: Study cohort 2, SI >1
Description: FIG. 13. Venn diagrams of CD4^+, CD8^+ and antibody response to oxPTM-INSPs. Panels a, b, and c show the overlap between IgG autoantibody and T-cell (CD4^+ and CD8^+) responses specific to oxPTM-INSP-3 (a), Nt-INSP-4 (b) and oxPTM-INSP-6 (c). Panels d, e, and f display the overlap between T-cell responses to the three insulin peptides and IgG to oxPTM-INS modified by hydroxyl radical (^●OH-INS). […] There is concordance between reactivity to oxPTM-INS and CD4^+ and CD8^+ reactivity for all three tested peptides (7/17, 8/18 and 8/18 for oxPTM-INSP-3, Nt-INSP-4 and oxPTM-INSP-6, respectively). The stimulatory index >1 was used for definition of positive T-cell response.
Correlation between T-cell stimulation and antibody response. Subjects evaluated for T-cell stimulation were also tested for antibody reactivity to either oxPTM-INSPs or oxidised intact insulin (oxPTM-INS) to assess correlations between humoral and cellular responses (FIG. 11-e-f). In study cohort 2, antibody reactivity to oxPTM-INSP-6 was the highest as observed in the study cohort 1, with 11/18 (61.1%) binding to at least one oxPTM-INSP-6 derivatives (p<0.001 oxPTM-INSP-6 vs. Nt-INSP-6). Detailed analysis of autoantibody response in this cohort is described in the ESM (ESM results Antibody binding to oxPTM-INSPs in Study cohort 2).
We then analysed the extent of correlation between CD4^+, CD8^+ and IgG antibody responses. […] The CD4^+ T cell response to Nt-INSP-4 frequently overlapped with CD8^+ (13/18 [72.2%]), and to a lesser extent to antibodies (7/18 [38.8%]). […] CD4^+ response to oxPTM-INSP-6 was linked to both CD8^+ and/or antibodies: […] patients had concordant CD4^+ and CD8^+ responses, while 9/18 (50%) patients had concordant CD4^+ and antibody responses. […] CD4^+ T-cell stimulation to Nt-INSP-4, oxPTM-INSP-6 and oxPTM-INSP-3 was associated with antibody reactivity to oxPTM-INS in 8/18 (44.4%), 8/18 (44.4%) and 7/18 (38.9%) type 1 diabetes patients.

CD8+ T-cells (PBMCs) = test: In vitro peptide stimulation and T-cell proliferation assay, CD8+; settings: for CD8+ mean SI (stimulation index): Study cohort 2
In short: as §1

[2] = Controls (N = 11), listed as Nt-INSP-4
[3] = Type 1 diabetes (N = 18), listed as Nt-INSP-4

Which results are given for “oxPTM-INSP-3: oxidised forms of insulin peptide 3 (A:12-21), in house oxidised or in silico derivatives (SLYQLENYCN; not fully specified (N-terminus); also: oxidised forms, in house oxidised or in silico derivatives, modified residues not defined)”?
CD4+ T-cell response, subjects with SI > 3 (%) (CD4+ T-cells (PBMCs); Controls (N = 11)): 9.1%; CD4+ T-cell response, subjects with SI > 3 (%) (CD4+ T-cells (PBMCs); Type 1 diabetes (N = 18)): 22.2%; concordance between reactivity to oxPTM-INS and CD4+ and CD8+ reactivity (patients/patients) ([1]; Study cohort 2): 7/17; patients with CD4+ T-cell stimulation associated with antibody reactivity to oxPTM-INS ([1]; Study cohort 2): 38.9%; patients with CD4+, CD8+ T-cells to the peptide and autoantibodies to oxPTM-INS simultaneously ([1]; Study cohort 2): 22.2%; patients with concordant CD4+, CD8+ and IgG antibody response to the peptide ([1]; Study cohort 2): 5.5%; patients with overlapping (concordant) CD4+ and CD8+ responses to the peptide [1]: 50.0%

For “LVEALYLVCGERGFFYTPKT [insulin B:11-30 native peptide]”, which “CD4+ T-cell response, subjects with SI > 1 (%)” value (CD4+ T-cells (PBMCs); Controls (N = 11)) is on record?
Its value is “(81.8%)”.

And the “CD4+ T-cell response, subjects with SI > 3 (%)” value (CD4+ T-cells (PBMCs); Controls (N = 11))?
The value was “(45.5%)”.

What about the “CD4+ T-cell response, subjects with SI > 5 (%)” value (CD4+ T-cells (PBMCs); Controls (N = 11)) of the same substance?
The value was “(27.3%)”.

What about the “CD4+ T-cell response, subjects with SI > 10 (%)” value (CD4+ T-cells (PBMCs); Controls (N = 11)) of the same substance?
Its value is “(9.1%)”.

And the “CD4+ T-cell response, subjects with SI > 3 (%)” value (CD4+ T-cells (PBMCs); [2])?
The value was 45.5%.

What about the “CD4+ T-cell response, subjects with SI > 1 (%)” value (CD4+ T-cells (PBMCs); Type 1 diabetes (N = 18)) of the same substance?
The value was “(100%)”.

And the “CD4+ T-cell response, subjects with SI > 3 (%)” value (CD4+ T-cells (PBMCs); Type 1 diabetes (N = 18))?
The value was “(66.7%)”.

And the “CD4+ T-cell response, subjects with SI > 5 (%)” value (CD4+ T-cells (PBMCs); Type 1 diabetes (N = 18))?
Its value is “(5.3%)”.

What about the “CD4+ T-cell response, subjects with SI > 10 (%)” value (CD4+ T-cells (PBMCs); Type 1 diabetes (N = 18)) of the same substance?
The value was “(50.0%)”.

What about the “CD4+ T-cell response, subjects with SI > 3 (%)” value (CD4+ T-cells (PBMCs); [3]) of the same substance?
Its value is 66.7%.

And the “CD4+ mean SI (stimulation index)” value (CD4+ T-cells (PBMCs); controls)?
The value was 6.89±3.4.

What about the “CD4+ mean SI (stimulation index)” value (CD4+ T-cells (PBMCs); type 1 diabetes) of the same substance?
The value was 119.8±51.69.

What about the “CD8+ T-cell response, subjects with SI > 1 (%)” value (CD8+ T-cells (PBMCs); Controls (N = 11)) of the same substance?
Its value is “(63.6%)”.

And the “CD8+ T-cell response, subjects with SI > 3 (%)” value (CD8+ T-cells (PBMCs); Controls (N = 11))?
The value was “(45.5%)”.

What about the “CD8+ T-cell response, subjects with SI > 5 (%)” value (CD8+ T-cells (PBMCs); Controls (N = 11)) of the same substance?
The value was “(27.3%)”.

And the “CD8+ T-cell response, subjects with SI > 10 (%)” value (CD8+ T-cells (PBMCs); Controls (N = 11))?
The value was “(18.2%)”.

What about the “CD8+ T-cell response, subjects with SI > 1 (%)” value (CD8+ T-cells (PBMCs); [2]) of the same substance?
The value was 63.6%.

And the “CD8+ T-cell response, subjects with SI > 1 (%)” value (CD8+ T-cells (PBMCs); Type 1 diabetes (N = 18))?
The value was “(72.2%)”.

And the “CD8+ T-cell response, subjects with SI > 3 (%)” value (CD8+ T-cells (PBMCs); Type 1 diabetes (N = 18))?
Its value is “(55.6%)”.

And the “CD8+ T-cell response, subjects with SI > 5 (%)” value (CD8+ T-cells (PBMCs); Type 1 diabetes (N = 18))?
Its value is “(38.9%)”.

What about the “CD8+ T-cell response, subjects with SI > 10 (%)” value (CD8+ T-cells (PBMCs); Type 1 diabetes (N = 18)) of the same substance?
The value was “(33.3%)”.

And the “CD8+ T-cell response, subjects with SI > 1 (%)” value (CD8+ T-cells (PBMCs); [3])?
Its value is 72.2%.

What about the “CD8+ mean SI (stimulation index)” value (CD8+ T-cells (PBMCs); controls) of the same substance?
Its value is 5.948±3.125.

And the “CD8+ mean SI (stimulation index)” value (CD8+ T-cells (PBMCs); type 1 diabetes)?
Its value is 405.8±325.5.

And the “concordance between reactivity to oxPTM-INS and CD4+ and CD8+ reactivity (patients/patients)” value ([1]; Study cohort 2)?
The value was 8/18.

What about the “patients with CD4+ T-cell stimulation associated with antibody reactivity to oxPTM-INS” value ([1]; Study cohort 2) of the same substance?
Its value is 44.4%.

And the “patients with CD4+, CD8+ T-cells to the peptide and autoantibodies to oxPTM-INS simultaneously” value ([1]; Study cohort 2)?
Its value is 27.8%.

And the “patients with concordant CD4+ and antibody responses to the peptide” value ([1]; Study cohort 2)?
Its value is 38.8%.

And the “patients with concordant CD4+, CD8+ and IgG antibody response to the peptide” value ([1]; Study cohort 2)?
Its value is 22.2%.

And the “patients with overlapping (concordant) CD4+ and CD8+ responses to the peptide” value [1]?
Its value is 72.2%.
